Key:
NTPDase8 = biological target: T1, NTPDase8 (Homo sapiens, UniProt Q5MY95); experiment: Malachite green assay for NTPDase8; assay type: biochemical; design: expressed in transfected cells; host or cells: COS-7 cell membrane preparations; settings: for Ki: ATP 50 µM, recombinant COS-7 cell membrane preparation, read-out: Ki ± SEM; for % inhibition: test concentration not given
T1 sequence (Q5MY95 1-495): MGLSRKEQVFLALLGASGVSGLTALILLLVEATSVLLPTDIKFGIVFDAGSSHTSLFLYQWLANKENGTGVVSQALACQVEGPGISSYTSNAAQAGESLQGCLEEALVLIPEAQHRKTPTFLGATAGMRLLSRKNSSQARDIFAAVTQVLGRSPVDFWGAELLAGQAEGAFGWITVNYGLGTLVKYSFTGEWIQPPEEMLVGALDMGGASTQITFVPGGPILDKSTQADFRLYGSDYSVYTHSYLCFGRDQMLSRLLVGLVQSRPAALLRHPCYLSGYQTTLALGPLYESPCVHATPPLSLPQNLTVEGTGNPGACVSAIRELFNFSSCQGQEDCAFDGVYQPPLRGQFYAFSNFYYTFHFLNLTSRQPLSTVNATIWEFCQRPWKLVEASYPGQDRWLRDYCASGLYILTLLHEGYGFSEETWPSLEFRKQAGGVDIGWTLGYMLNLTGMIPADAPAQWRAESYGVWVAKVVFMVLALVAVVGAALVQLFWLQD
Protocol: The enzymatic activity assay was determined essentially as previously described ([Cogan et al., 1999]) with a few adaptations. The reaction buffer contained 10 mM HEPES, 2 mM CaCl2, 1 mM MgCl2, pH 7.4 in a final volume of 50 μl in transparent 96-well half area plates. For CD39 (NTPDase1), we made use of human umbilical cord membranes preparations which express high levels of the enzyme. For the other human NTPDase isoenzymes, we had to resort to recombinant expression. Human umbilical cord membrane preparations (250 ng) natively expressing high amounts of CD39, or the respective recombinant COS-7 cell membrane preparations expressing the appropriate NTPDase isoenzyme (ca. 100 ng of protein depending on enzyme activity) ([Sévigny et al., 1997]; [Lecka et al., 2013]) with or without inhibitor were preincubated at 37°C and gentle shaking (Eppendorf Thermomixer comfort at 500 rpm) for 5 min. The amount of enzyme preparation was adjusted to ensure 10–20% of substrate conversion. […] ([Kukulski et al., 2005]). After 15 min of incubation at 37°C with gentle shaking, the reaction was stopped by adding the detection reagents (20 µl malachite green solution, 0.6 mM, and 30 µl ammonium molybdate solution, 20 mM, in sulfuric acid, 1.5 M). The released (inorganic) phosphate was quantified after 20 min of gentle shaking at 25°C by measuring the absorption of the malachite green-phosphomolybdate complex at 600 nm using a BMG PheraStar FS plate reader (BMG Labtech GmbH, Ortenberg, Germany). The corrected absorption was calculated by subtracting the absorption of the negative control samples, which were incubated with denatured enzyme (90°C, 15 min), and the inhibition was calculated as follows:
% Inhibition=(B−T)/B*100%
where B is the average corrected absorption of the positive control without inhibitor and T the corrected absorption in the presence of test compound.
Full concentration-inhibition curves were determined with inhibitor concentrations ranging from 0.1 to 300 µM in the presence of 2% DMSO. Three independent experiments were performed (n = 3) and curves were calculated by the GraphPad Prism 8 software. The Ki value was calculated using the Cheng-Prusoff equation for competitive inhibitors: […]

human NPP5 = biological target: T2, human NPP5 (Homo sapiens, UniProt Q9UJA9); experiment: NPP5 assay with ϵ-NAD+ as substrate; assay type: biochemical; settings: for inhibition at 10 µM: 10 µM test compound; for Ki: 20 µM ϵ-NAD+, read-out: Ki ± SEM
T2 construct: the catalytic domains of the enzymes were amplified and sub-cloned into the expression vector pACGP67 A/B; 9xHis (C); made in house; host or cells: Sf9 insect cells (baculovirus, pACGP67 A/B)
T2 sequence (Q9UJA9 25-431 limits assumed): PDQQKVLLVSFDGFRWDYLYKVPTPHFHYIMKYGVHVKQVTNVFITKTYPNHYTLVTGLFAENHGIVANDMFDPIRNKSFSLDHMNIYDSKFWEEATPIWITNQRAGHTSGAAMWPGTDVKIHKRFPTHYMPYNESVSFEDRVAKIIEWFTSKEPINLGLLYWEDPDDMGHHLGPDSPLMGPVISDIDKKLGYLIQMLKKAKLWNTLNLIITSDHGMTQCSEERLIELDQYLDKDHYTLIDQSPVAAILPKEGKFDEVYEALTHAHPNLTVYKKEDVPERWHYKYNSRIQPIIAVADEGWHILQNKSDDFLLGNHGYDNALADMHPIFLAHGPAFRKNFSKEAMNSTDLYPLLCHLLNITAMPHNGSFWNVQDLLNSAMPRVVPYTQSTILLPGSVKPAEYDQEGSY
From the text: The cDNAs of the human enzymes NPP1, NPP3, NPP5, CD38 and CD73 (Genbank accession no. NM_006258, NM_005021, NM_021572, NM_ 001775, and NM_002526, respectively) were obtained from Origene (Rockville, USA). Soluble enzymes were produced as previously reported with some modifications ([Lee et al., 2015]; [Junker et al., 2019]). Briefly, the catalytic domains of the enzymes were amplified and sub-cloned into the expression vector pACGP67 A/B modified with the addition of 9 x histidine tag (His-tag) at the C-terminus (except for NPP1). The plasmids were transfected in Sf9 insect cells using Cellfectin™ II Reagent (Thermo Fisher Scientific, MA, USA) and ProEasy™ baculovirus linearized DNA (Cat.#A10S, AB Vector, LLC). Protein expression was conducted for 48 h at 27°C. The signal peptide sequence of the expression vector shuttled the proteins into the supernatant. The supernatant medium was collected, and the enzymes were purified using HisPur™ Ni^2+-NTA spin columns according to the manufacturer’s protocol. The protein concentration was determined by the method previously described by [Lowry et al. (1951)].
The assays were performed in analogy to published procedures ([Blacher et al., 2015]). The enzymatic activity of human NPP3 and NPP5 (soluble forms expressed in insect cells and purified as previously described ([Lee et al., 2015]; [Lopez et al., 2020]) was measured using 1,N^6-etheno-nicotinamide adenine dinucleotide (ϵ-NAD^+) as a substrate, which is hydrolyzed to fluorescent 1,N^6-etheno-AMP (ϵ-AMP). The enzymatic reactions were performed in reaction buffer [10 mM N-cyclohexyl-2-aminoethanesulfonic acid (CHES), 2 mM CaCl2, and 1 mM MgCl2, pH 9.0 in H2O]. Purified NPP3 (90 ng) or NPP5 (400 ng), 20 µM of ϵ-NAD^+ and 10 µM of the test compound were incubated for 30 min at 37°C. The relative fluorescence at 270 nm excitation and 420 nm emission was detected by a fluorescence microplate reader (Flexstation, Medical Devices LLC. USA, Softmax Pro software to collect the data).

Row | SMILES | Ki (NTPDase8) | % inhibition (NTPDase8) | inhibition at 10 µM (human NPP5) | Ki (human NPP5)
1 | CCCCNc1nc2c(NC)ncnc2n1[C@@H]1O[C@H](COP(=O)(O)OP(=O)(O)C(Br)(Br)P(=O)(O)O)[C@@H](O)[C@H]1O [Compound 33, (Dibromo((((((2R,3S,4R,5R)-5-(8-(butylamino)-6-(methylamino)-9H-purin-9-yl)-3,4-dihydroxy-tetrahydrofuran-2-yl)methoxy)(hydroxy)phosphoryl)oxy)-(hydroxy)phosphoryl)methyl)-phosphonic Acid] | > 50 µM | -11% | 1% | > 10 µM
2 | CCCCSc1nc2c(N)ncnc2n1[C@@H]1O[C@H](COP(=O)(O)OP(=O)(O)C(Br)(Br)P(=O)(O)O)[C@@H](O)[C@H]1O [Compound 31, (((((((2R,3S,4R,5R)-5-(6-Amino-8-(butylthio)-9H-purin-9-yl)-3,4-dihydroxytetrahydrofuran-2-yl)methoxy)(hydroxy)-phosphoryl)oxy)(hydroxy)phosphoryl)dibromomethyl)-phosphonic Acid] | > 50 µM | 2% | 2% | > 10 µM
3 | CCN(CC)c1ncnc2c1ncn2[C@@H]1O[C@H](COP(=O)(O)OP(=O)(O)C(Br)(Br)P(=O)(O)O)[C@@H](O)[C@H]1O [ARL67156, (Dibromo((((((2R,3S,4R,5R)-5-(6-(diethylamino)-9H-purin-9-yl)-3,4-dihydroxytetrahydrofuran-2-yl)methoxy)-(hydroxy)-phosphoryl)oxy)(hydroxy)phosphoryl)methyl)-phosphonic Acid, reference compound] | > 50 µM | 2% | -3% | > 10 µM

Reference: publication PMC7508162 (Frontiers in Pharmacology, 2020)
